Source: US20070117743A1, “New antitumoral compounds” (priority 2003, published 2007)
Where a SMILES comes first, the peptide text is derived from it. Bridges are numbered along the chain shown (N, C = ends). [ ]: non-standard residue; d: D form. The star is where a group is joined. ξ: configuration not given here. Pro(3ξ,4ξ-(CH2)4) = O=C(O)[C@H]1NCC2CCCCC21; Hexanoyl(4S-Me) = CC[C@H](C)CCC(=O)*; d(aIle) = CC[C@H](C)[C@@H](N)C(=O)O; d(aThr) = C[C@@H](O)[C@@H](N)C(=O)O; 2Thi = N[C@@H](Cc1cccs1)C(=O)O; Orn = NCCC[C@H](N)C(=O)O; Dhb = C/C=C(\N)C(=O)O

What was measured:
Type in all cases: cell-based, human
[1] = tested on: SK-MEL-28; assay: SRB colorimetric assay of cell growth and viability, SK-MEL-28; details: 48 hours exposure, SRB; for CC50: read-out: LC50 MEL-28
[2] = tested on: IGROV-ET; assay: SRB colorimetric assay of cell growth and viability, IGROV-ET; details: 48 hours exposure, SRB; for CC50: read-out: LC50 IGROV-ET
[3] = tested on: LoVo; assay: SRB colorimetric assay of cell growth and viability, LoVo; details: 48 hours exposure, SRB; for CC50: read-out: LC50 LOVO
[4] = tested on: DU-145; assay: SRB colorimetric assay of cell growth and viability, DU-145; details: 48 hours exposure, SRB
[5] = tested on: K-562; assay: SRB colorimetric assay of cell growth and viability, K-562; details: 48 hours exposure, SRB; for CC50: read-out: LC50 K-562
[6] = tested on: HeLa-APL; assay: SRB colorimetric assay of cell growth and viability, HeLa-APL; details: 48 hours exposure, SRB; for CC50: read-out: LC50 HELA-APL
[7] = tested on: SK-BR-3; assay: SRB colorimetric assay of cell growth and viability, SK-BR-3; details: 48 hours exposure, SRB
Text: The finality of this assay is to interrupt the growth of a “in vitro” tumor cell culture by means a continued exhibition of the cells to the sample to be testing.
This form of the assay employs 96 well cell culture microplates of 9 mm diameter (Faircloth, 1988; Mosmann, 1983). Most of the cell lines are obtained from American Type Culture Collection (ATCC) derived from different human cancer types.
Cells are maintained in RPMI 1640 10% FBS, supplemented with 0.1 g/l penicillin and 0.1 g/l streptomycin sulfate and then incubated at 37° C., 5% CO2 and 98% humidity. For the experiments, cells were harvested from subconfluent cultures using trypsin and resuspended in fresh medium before plating.
Cells are seeded in 96 well microtiter plates, at 5×10^3 cells per well in aliquots of 195 μL medium, and they are allowed to attach to the plate surface by growing in drug free medium for 18 hours. Afterward, samples are added in aliquots of 5 μL in a ranging from 10 to 10^−8 μg/mL, dissolved in DMSO:EtOH:PBS (0.5:0.5:99). After 48 hours exposure, the antitumor effect are measured by the SRB methodology: cells are fixed by adding 50 μL of cold 50% (wt/vol) trichloroacetic acid (TCA) and incubating for 60 minutes at 4° C. Plates are washed with deionized water and dried. One hundred μL of SRB solution (0.4% wt/vol in 1% acetic acid) is added to each microtiter well and incubated for 10 minutes at room temperature. Unbound SRB is removed by washing with 1% acetic acid. Plates are air dried and bound stain is solubilized with Tris buffer. Optical densities are read on a automated spectrophotometric plate reader at a single wavelength of 490 nm.
The values for mean+/− SD of data from triplicate wells are calculated. Some parameters for cellular responses can be calculated: GI=growth inhibition, TGI=total growth inhibition (cytostatic effect) and LC=cell killing (cytotoxic effect).

[8] = tested on: A-549; assay: SRB colorimetric assay of cell growth and viability, A-549; details: 48 hours exposure, SRB; for GI50: read-out: GI50 A-549; for CC50: read-out: LC50 A-549
[9] = tested on: HT-29; assay: SRB colorimetric assay of cell growth and viability, HT-29; details: 48 hours exposure, SRB; for GI50: read-out: GI50 HT-29; for CC50: read-out: LC50 HT-29
[10] = tested on: HeLa; assay: SRB colorimetric assay of cell growth and viability, HeLa; details: 48 hours exposure, SRB; for CC50: read-out: LC50 HELA
[11] = tested on: IGROV-1; assay: SRB colorimetric assay of cell growth and viability, IGROV-1; details: 48 hours exposure, SRB
[12] = tested on: PANC-1; assay: SRB colorimetric assay of cell growth and viability, PANC-1; details: 48 hours exposure, SRB; for CC50: read-out: LC50 PANC-1
[13] = tested on: LoVo-Dox; assay: SRB colorimetric assay of cell growth and viability, LoVo-Dox; details: 48 hours exposure, SRB; for CC50: read-out: LC50 LOVO-DOX
Outline: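 Continuous 48-hour exposure of cells plated at 5×10^3 per well, with compounds diluted in DMSO:EtOH:PBS (0.5:0.5:99) over 10 to 10^−8 μg/mL. Staining with SRB and reading at 490 nm give GI, TGI and LC.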

SMILES | GI50 [1] [µM] | TGI MEL-28 [1] [Molar] | CC50 [1] [µM] | GI50 [2] [µM] | TGI IGROV-ET [2] [Molar] | CC50 [2] [µM] | GI50 [3] [µM] | TGI LOVO [3] [Molar] | CC50 [3] [µM] | GI50 [4] [µM] | LC50 (concentration causing 50% net cell kill) [4] [µM] | TGI DU-145 [4] [Molar] | GI50 [5] [µM] | TGI K-562 [5] [Molar] | CC50 [5] [µM] | GI50 [6] [µM] | TGI HELA-APL [6] [Molar] | CC50 [6] [µM] | GI50 [7] [µM] | LC50 [7] [µM] | also measured
C/C=C1\NC(=O)[C@H](Cc2ccccc2)N(C)C(=O)[C@@H](C(C)C)NC(=O)[C@@H]([C@@H](C)CC)NC(=O)[C@H](NC(=O)[C@H](NC(=O)[C@H](CCCN)NC(=O)[C@H]2CCCN2C(=O)[C@H](NC(=O)[C@@H](NC(=O)[C@@H](NC(=O)[C@H](NC(=O)CC[C@@H](C)CC)C(C)C)[C@@H](C)O)C(C)C)C(C)C)[C@@H](C)CC)[C@@H](C)OC(=O)[C@H](C(C)C)NC1=O [Compound 80, [NMePhe^3, (4S)-MeHex^14]-KF] | 1.32 | 2.25E−06 | 3.84 | 0.583 | 1.39E−06 | 3.04 | 0.125 | 2.61E−07 | 0.545 | 1.07 | 3.62 | 1.97E−06 | 0.744 | 1.62E−06 | 3.54 | 0.845 | 1.64E−06 | 3.19 | 0.123 | 1.43 | TGI SK-BR-3 [7]: 3.29E−07 Molar; TGI A-549 [8]: 2.03E−06 Molar; GI50 [8]: 1.13 µM; CC50 [8]: 3.67 µM; TGI HT-29 [9]: 4.03E−07 Molar; GI50 [9]: 0.178 µM; CC50 [9]: 1.2 µM; GI50 [10]: 0.392 µM; TGI HELA [10]: 1.19E−06 Molar; CC50 [10]: 2.51 µM; GI50 [11]: 0.416 µM; LC50 (concentration causing 50% net cell killing) [11]: 2.82 µM; TGI IGROV [11]: 1.17E−06 Molar; GI50 [12]: 1.9 µM; TGI PANC-1 [12]: 3.82E−06 Molar; CC50 [12]: 6.7 µM; GI50 [13]: 0.12 µM; TGI LOVO-DOX [13]: 2.08E−07 Molar; CC50 [13]: 0.359 µM
C/C=C1\NC(=O)[C@@H]2C3CCCCC3CN2C(=O)[C@@H](C(C)C)NC(=O)[C@@H]([C@@H](C)CC)NC(=O)[C@H](NC(=O)[C@H](NC(=O)[C@H](CCCN)NC(=O)[C@H]2CCCN2C(=O)[C@H](NC(=O)[C@@H](NC(=O)[C@@H](NC(=O)[C@H](NC(=O)CC[C@@H](C)CC)C(C)C)[C@@H](C)O)C(C)C)C(C)C)[C@@H](C)CC)[C@@H](C)OC(=O)[C@H](C(C)C)NC1=O (stereo partly drawn) [Compound 79, [Oic^3, (4S)-MeHex^14]-KF] ({Hexanoyl(4S-Me)}-[dV]TV[dV][dP][Orn][d(aIle)][d(aThr)][d(aIle)][dV][Pro(3ξ,4ξ-(CH2)4)][Dhb]V; ester 8-C) | 2.31 | 6.75E−06 | ≥ 6.75 | 1.98 | 4.28E−06 | ≥ 6.75 | 0.591 | 1.40E−06 | 3.02 | 6.01 | ≥ 6.75 | 6.75E−06 | 1.71 | 4.02E−06 | ≥ 6.75 | 4.8 | 6.75E−06 | ≥ 6.75 | 0.796 | 3.43 | TGI SK-BR-3 [7]: 1.65E−06 Molar; TGI A-549 [8]: 6.75E−06 Molar; GI50 [8]: 4.42 µM; CC50 [8]: ≥ 6.75 µM; TGI HT-29 [9]: 2.43E−06 Molar; GI50 [9]: 1.44 µM; CC50 [9]: 4.09 µM; GI50 [10]: 2.69 µM; TGI HELA [10]: 6.75E−06 Molar; CC50 [10]: ≥ 6.75 µM; GI50 [11]: 1.91 µM; LC50 (concentration causing 50% net cell killing) [11]: 5.55 µM; TGI IGROV [11]: 3.25E−06 Molar; GI50 [12]: ≥ 6.75 µM; TGI PANC-1 [12]: 6.75E−06 Molar; CC50 [12]: ≥ 6.75 µM; GI50 [13]: 0.387 µM; TGI LOVO-DOX [13]: 1.15E−06 Molar; CC50 [13]: 2.56 µM
C/C=C1\NC(=O)[C@H](Cc2ccc(OC)cc2)NC(=O)[C@@H](C(C)C)NC(=O)[C@@H]([C@@H](C)CC)NC(=O)[C@H](NC(=O)[C@H](NC(=O)[C@H](CCCN)NC(=O)[C@H]2CCCN2C(=O)[C@H](NC(=O)[C@@H](NC(=O)[C@@H](NC(=O)[C@H](NC(=O)CC[C@@H](C)CC)C(C)C)[C@@H](C)O)C(C)C)C(C)C)[C@@H](C)CC)[C@@H](C)OC(=O)[C@H](C(C)C)NC1=O [Compound 75, [Tyr(Me)^3, (4S)-MeHex^14]-KF] ({Hexanoyl(4S-Me)}-[dV]TV[dV][dP][Orn][d(aIle)][d(aThr)][d(aIle)][dV]Y(Me)[Dhb]V; ester 8-C) | 0.975 | 1.82E−06 | 3.4 | 0.38 | 9.09E−07 | 2.41 | 0.126 | 2.22E−07 | 0.391 | 0.749 | 3.16 | 1.54E−06 | 0.533 | 2.15E−06 | 6.63 | 0.942 | 1.78E−06 | 3.38 | 0.251 | 2.38 | TGI SK-BR-3 [7]: 6.03E−07 Molar; TGI A-549 [8]: 1.91E−06 Molar; GI50 [8]: 1.03 µM; CC50 [8]: 3.55 µM; TGI HT-29 [9]: 2.80E−07 Molar; GI50 [9]: 0.158 µM; CC50 [9]: 0.495 µM; GI50 [10]: 0.509 µM; TGI HELA [10]: 1.18E−06 Molar; CC50 [10]: 2.5 µM; GI50 [11]: 0.35 µM; LC50 (concentration causing 50% net cell killing) [11]: 2.36 µM; TGI IGROV [11]: 8.36E−07 Molar; GI50 [12]: 1.7 µM; TGI PANC-1 [12]: 3.08E−06 Molar; CC50 [12]: 5.59 µM; GI50 [13]: 0.137 µM; TGI LOVO-DOX [13]: 2.27E−07 Molar; CC50 [13]: 0.379 µM
C/C=C1\NC(=O)[C@H](Cc2cccs2)NC(=O)[C@@H](C(C)C)NC(=O)[C@@H]([C@@H](C)CC)NC(=O)[C@H](NC(=O)[C@H](NC(=O)[C@H](CCCN)NC(=O)[C@H]2CCCN2C(=O)[C@H](NC(=O)[C@@H](NC(=O)[C@@H](NC(=O)[C@H](NC(=O)CC[C@@H](C)CC)C(C)C)[C@@H](C)O)C(C)C)C(C)C)[C@@H](C)CC)[C@@H](C)OC(=O)[C@H](C(C)C)NC1=O [Compound 76, [Thi^3, (4S)-MeHex^14]-KF] ({Hexanoyl(4S-Me)}-[dV]TV[dV][dP][Orn][d(aIle)][d(aThr)][d(aIle)][dV][2Thi][Dhb]V; ester 8-C) | 1.54 | 2.52E−06 | 4.14 | 1 | 1.85E−06 | 3.41 | 0.243 | 7.21E−07 | 2.16 | 1.2 | 3.75 | 2.12E−06 | 1.71 | 4.01E−06 | 6.74 | 1.35 | 2.28E−06 | 3.86 | 0.313 | 2.04 | TGI SK-BR-3 [7]: 6.26E−07 Molar; TGI A-549 [8]: 2.60E−06 Molar; GI50 [8]: 1.53 µM; CC50 [8]: 4.43 µM; TGI HT-29 [9]: 1.74E−06 Molar; GI50 [9]: 0.842 µM; CC50 [9]: 3.59 µM; GI50 [10]: 1.18 µM; TGI HELA [10]: 2.01E−06 Molar; CC50 [10]: 3.45 µM; GI50 [11]: 1.18 µM; LC50 (concentration causing 50% net cell killing) [11]: 3.87 µM; TGI IGROV [11]: 2.14E−06 Molar; GI50 [12]: 5.93 µM; TGI PANC-1 [12]: 6.74E−06 Molar; CC50 [12]: 6.74 µM; GI50 [13]: 0.147 µM; TGI LOVO-DOX [13]: 2.61E−07 Molar; CC50 [13]: 0.463 µM
